# Data from ChEMBL document CHEMBL3596089, “Synthesis and characterization of novel oxazines and demonstration that they specifically target cyclooxygenase 2” (Bioorg Med Chem Lett, 2015).
# Key:
# [1] = target: T1, Prostaglandin G/H synthase 2 (Homo sapiens, UniProt P35354); assay: Inhibition of COX2 (unknown origin)
# T1 sequence (P35354 whole entry): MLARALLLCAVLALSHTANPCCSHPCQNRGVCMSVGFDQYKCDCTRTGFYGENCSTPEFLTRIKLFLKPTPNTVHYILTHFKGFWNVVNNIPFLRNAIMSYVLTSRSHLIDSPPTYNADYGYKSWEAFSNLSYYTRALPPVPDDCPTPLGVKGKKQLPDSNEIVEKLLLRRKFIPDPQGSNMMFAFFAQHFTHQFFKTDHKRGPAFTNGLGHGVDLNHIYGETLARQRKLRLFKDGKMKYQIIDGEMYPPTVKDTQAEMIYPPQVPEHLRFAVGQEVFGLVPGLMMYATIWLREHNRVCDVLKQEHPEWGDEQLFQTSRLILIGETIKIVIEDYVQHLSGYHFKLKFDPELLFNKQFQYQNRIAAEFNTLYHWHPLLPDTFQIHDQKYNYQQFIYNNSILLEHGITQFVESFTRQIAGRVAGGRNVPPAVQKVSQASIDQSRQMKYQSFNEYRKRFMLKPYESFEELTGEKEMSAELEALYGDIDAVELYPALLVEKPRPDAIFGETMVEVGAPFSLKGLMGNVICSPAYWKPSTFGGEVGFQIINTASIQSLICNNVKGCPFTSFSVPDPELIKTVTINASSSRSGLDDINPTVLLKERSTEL
# [2] = target: Prostaglandin G/H synthase 1 (Homo sapiens, UniProt P23219); assay: Inhibition of COX1 (unknown origin)
# Chain of Prostaglandin G/H synthase 1 (P23219 whole entry): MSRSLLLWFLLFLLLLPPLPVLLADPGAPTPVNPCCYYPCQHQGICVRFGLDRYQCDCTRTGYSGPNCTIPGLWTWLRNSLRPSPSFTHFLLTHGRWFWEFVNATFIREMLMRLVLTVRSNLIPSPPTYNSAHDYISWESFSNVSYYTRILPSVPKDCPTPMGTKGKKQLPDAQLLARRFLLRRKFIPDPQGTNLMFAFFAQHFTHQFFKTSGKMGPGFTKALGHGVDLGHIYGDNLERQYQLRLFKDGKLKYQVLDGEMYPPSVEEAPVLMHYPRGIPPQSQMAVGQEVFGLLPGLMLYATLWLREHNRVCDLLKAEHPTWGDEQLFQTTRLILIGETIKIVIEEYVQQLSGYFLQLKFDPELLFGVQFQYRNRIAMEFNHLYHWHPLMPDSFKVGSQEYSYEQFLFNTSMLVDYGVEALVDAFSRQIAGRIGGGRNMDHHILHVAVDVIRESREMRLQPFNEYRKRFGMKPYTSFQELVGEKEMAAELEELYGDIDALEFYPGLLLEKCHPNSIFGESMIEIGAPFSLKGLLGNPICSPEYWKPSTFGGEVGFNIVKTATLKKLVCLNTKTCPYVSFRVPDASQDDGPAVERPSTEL
SMILES,IC50 [1] [µM],IC50 [2] [µM]
COc1ccc([C@H]2C(Cn3c4ccccc4c4ccccc43)=NO[C@@H]3CCCC[C@H]23)cc1,5.9,50.8
COc1ccc(N2CCN(CC3=NOC(C)(C)CC3c3ccccc3)CC2)cc1 (stereo not given),2.6,50.6
COc1ccc([C@H]2C(CN3CCN(c4ccc(OC)cc4)CC3)=NO[C@@H]3CCCC[C@H]23)cc1,1.7,40.4
CC1(C)CC(c2ccccc2)C(CN2CCN(c3cccc(Cl)c3Cl)CC2)=NO1 (stereo not given),6.8,54.9
CC1(C)CC(c2ccc(Cl)cc2)C(Cn2c3ccccc3c3ccccc32)=NO1 (stereo not given),3.9,40.8
COc1ccc(N2CCN(CC3=NO[C@@H]4CCCC[C@@H]4[C@H]3c3ccccc3)CC2)cc1,1.8,35.8
c1ccc([C@H]2C(Cn3c4ccccc4c4ccccc43)=NO[C@@H]3CCCC[C@H]23)cc1,9.9,59.9

# Second part, the compound after the results:
IC50 [1] [µM],IC50 [2] [µM],SMILES
4.1,40.1,CC1(C)CC(c2ccc(Cl)cc2)C(CN2CCC(c3noc4cc(F)ccc34)CC2)=NO1 (stereo not given)
10.5,39.8,CC1(C)CC(c2ccccc2)C(CN2CCC(c3noc4cc(F)ccc34)CC2)=NO1 (stereo not given)
4.7,42.8,Fc1ccc2c(C3CCN(CC4=NO[C@@H]5CCCC[C@@H]5[C@H]4c4ccccc4)CC3)noc2c1
